IC50 data for one molecule are collected here from US11932642B1, “Substituted pyrido[3′,4′:4,5]pyrrolo[3,2-b][1,6]naphthyridines as CK2 inhibitors” (KING FAISAL UNIVERSITY, priority 2023, dated 2024).

In assay [1] the test system is MIAPaCa-2 (pancreas). Nature of the assay: In vitro cytotoxic activity (MTT) assay, MIAPaCa-2. It is filed as cell-based. As to conditions: Homo sapiens, MIA PaCa-2; MIAPaCa-2 (pancreas) cells, exposed for 96 hours; read-out: IC50, concentration of compound eliciting a 50% inhibition of cell proliferation. As for the experimental part:
(§1) Compounds 1-12 were screened for their in vitro cytotoxic activity utilizing a 3-(4,5-dimethyl-thiazol-2-yl)-2,5-diphenyltetrazolium bromide (MTT) assay against selected cancer human cell lines consisting of PC3 (prostate), HCT116 (colon), A375 (melanoma), H1299 (lung), MIAPaCa-2 (pancreas), HL60 (leukemia), MCF7 (breast), MDA-MB-231 (breast) (T. Mosmann, J. Immunol. Meth., 1983, 65, 55-63). The cells were cultured at 37° C. in RMPI1640 medium supplemented with 10% fetal bovine serum, 50 IU/mL penicillin, and 50 μg/mL streptomycin in a 5% CO2 incubator. All cells were sub-cultured 3 times/week by trypsinisation. Viable cells were seeded and allowed to adhere for 12 h before a test drug was added in 96-well plates at an initial density of 1.0×10^5 cells/mL. Tumour cell lines were separately exposed to various concentrations of the tested compounds followed by incubation at a temperature of 37° C. during 96 h inside a medium of fresh RMPI 1640. Cells were subsequently incubated at 37° C. using MTT at 0.5 mg/mL during 4 h. After removal of supernatant, formazan crystals were dissolved in isopropanol and the optical density was measured at 570 nm. CX-4945 was used as a positive control.

For assay [2], the system named is H1299 (lung). Kind of assay: In vitro cytotoxic activity (MTT) assay, H1299. It counts as cell-based. As to conditions: Homo sapiens, NCI-H1299; H1299 (lung) cells, exposed for 96 hours; read-out: IC50, concentration of compound eliciting a 50% inhibition of cell proliferation. How it is done: as §1
Assay [3] concerns MCF7 (breast). Nature of the assay: In vitro cytotoxic activity (MTT) assay, MCF7. It is filed as cell-based. Particulars: Homo sapiens; MCF7 (breast) cells, exposed for 96 hours; read-out: IC50, concentration of compound eliciting a 50% inhibition of cell proliferation. As for the experimental part: as §1
The subject of assay [4] is PC3 (prostate). Kind of assay: In vitro cytotoxic activity (MTT) assay, PC3. It counts as cell-based. As to conditions: Homo sapiens, Prostate cell; PC3 (prostate) cells, exposed for 96 hours; read-out: IC50, concentration of compound eliciting a 50% inhibition of cell proliferation. How it is done: as §1
The target of assay [5] is T1, recombinant human CK2 (RRββ-holoenzyme) (Homo sapiens, UniProt P68400).
T1 construct: purchased Millipore
Kind of assay: CK2 Kinase Assay (radiometric, [γ-33P] ATP). It is filed as biochemical. As to conditions: final ATP concentration 15 μM, 10 min at 30° C.; read-out: protein kinase CK2 IC50. How it is done: CK2 Kinase Assay was conducted using the protocol as described in Pierre F. et al; J. Med. Chem. 2011, 54, 635-654. The tested compounds in aqueous solution were added at a volume of 10 μL to a reaction mixture comprising 10 μL of assay dilution buffer (ADB; 20 mM MOPS, pH 7.2, 25 mM β-glycerol phosphate, 5 mM EGTA, 1 mM sodium orthovanadate, and 1 mM dithiothreitol), 10 μL of substrate peptide (RRRDDDSDDD, dissolved in ADB at a concentration of 1 mM), 10 μL of recombinant human CK2 (RRββ-holoenzyme, 25 ng dissolved in ADB; Millipore). Reactions were initiated by the addition of 10 μL of ATP solution (90% 75 mMMgCl2, 75 μM ATP (final ATP concentration: 15 μM) dissolved in ADB; 10% [γ-33P] ATP (stock 1 mCi/100 μL; 3000 Ci/mmol (Perkin-Elmer) and maintained for 10 min at 30° C. The reactions were quenched with 100 μL of 0.75% phosphoric acid and then transferred to and filtered through a phosphor cellulose filter plate (Millipore). After washing each well five times with 0.75% phosphoric acid, the plate was dried under vacuum for 5 min and, following the addition of 15 μL of scintillation fluid to each well, the residual radioactivity was measured using a Wallac […] counter. The IC50 values were derived from eight concentrations of test inhibitors.

Assay [6] deals with MDA-MB-231 (breast). Kind of assay: In vitro cytotoxic activity (MTT) assay, MDA-MB-231. It is filed as cell-based. As to conditions: Homo sapiens; MDA-MB-231 (breast) cells, exposed for 96 hours; read-out: IC50, concentration of compound eliciting a 50% inhibition of cell proliferation. As for the experimental part: as §1
In assay [7] the test system is HCT116 (colon). Kind of assay: In vitro cytotoxic activity (MTT) assay, HCT116. As to conditions: Homo sapiens, HCT-116; HCT116 (colon) cells, exposed for 96 hours; read-out: IC50, concentration of compound eliciting a 50% inhibition of cell proliferation. It is filed as cell-based. As for the experimental part: as §1
The subject of assay [8] is HL60 (leukemia). Nature of the assay: In vitro cytotoxic activity (MTT) assay, HL60. It is filed as cell-based. As to conditions: Homo sapiens, HL-60; HL60 (leukemia) cells, exposed for 96 hours; read-out: IC50, concentration of compound eliciting a 50% inhibition of cell proliferation. How it is done: as §1
Assay [9] relates to A375 (melanoma). Nature of the assay: In vitro cytotoxic activity (MTT) assay, A375. It is filed as cell-based. As to conditions: Homo sapiens, A-375; A375 (melanoma) cells, exposed for 96 hours; read-out: IC50, concentration of compound eliciting a 50% inhibition of cell proliferation. How it is done:
as §1

T1 sequence (P68400 whole entry): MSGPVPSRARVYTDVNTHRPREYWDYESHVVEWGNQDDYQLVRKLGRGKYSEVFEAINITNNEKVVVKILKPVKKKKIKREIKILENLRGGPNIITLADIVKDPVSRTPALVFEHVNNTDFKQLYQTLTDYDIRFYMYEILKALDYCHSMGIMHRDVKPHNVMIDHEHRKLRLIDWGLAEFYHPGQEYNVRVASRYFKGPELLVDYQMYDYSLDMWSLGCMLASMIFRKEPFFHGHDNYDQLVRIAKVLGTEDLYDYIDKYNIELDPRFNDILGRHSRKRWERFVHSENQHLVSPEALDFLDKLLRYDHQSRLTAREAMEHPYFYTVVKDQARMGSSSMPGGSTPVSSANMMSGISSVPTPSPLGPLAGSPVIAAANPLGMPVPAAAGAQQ
T1 sequence (P67870 whole entry partner): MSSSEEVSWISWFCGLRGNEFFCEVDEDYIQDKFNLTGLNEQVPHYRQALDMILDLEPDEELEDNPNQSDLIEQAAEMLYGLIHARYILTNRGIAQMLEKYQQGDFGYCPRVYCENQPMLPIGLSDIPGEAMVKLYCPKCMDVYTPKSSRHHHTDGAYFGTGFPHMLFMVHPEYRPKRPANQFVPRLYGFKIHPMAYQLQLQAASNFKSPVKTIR

For `Clc1cccc(Nc2c3cnccc3nc3c2[nH]c2ccncc23)c1` [Compound (1), N-(3-chlorophenyl)-10H-pyrido[3′,4′:4,5]pyrrolo[3,2-b][1,6]naphthyridin-11-amine], the IC50 in [1] turned out to be 900 nM; in assay [2], 3200 nM; in assay [3], 7600 nM; in [4] it was 1700 nM; in [5], 64 nM; in assay [6] it was 5400 nM. In addition, the IC50 was 1100 nM in assay [7], 2400 nM in assay [8] and 2800 nM in assay [9].
